Assay results reported in the supplement of paper PMC13207355.
Where a name gives a salt, the structure may show the parent alone.

Key:
Details in all cases: exposure time: 72 h
[1] = tested on: FT3469 (normal neural stem cell line); assay: phenotypic distance (Euclidean, principal components) from DMSO controls (arbitrary units); higher = stronger morphological change
[2] = tested on: E28 (patient-derived glioblastoma stem cells of classical subtype); assay: as above
[3] = tested on: E57 (patient-derived glioblastoma stem cells of mesenchymal subtype); assay: as above
[4] = tested on: E31 (patient-derived glioblastoma stem cells of proneural subtype); assay: as above
[5] = tested on: E34 (patient-derived glioblastoma stem cells of proneural subtype); assay: as above
[6] = tested on: E21 (patient-derived glioblastoma stem cells of mesenchymal subtype); assay: as above
[7] = tested on: E13 (patient-derived glioblastoma stem cells of classical subtype); assay: as above
[8] = tested on: FT3469; assay: surviving fraction (nuclei count normalised to DMSO); higher = more cells surviving (less toxic)
[9] = tested on: E28; assay: as above
[10] = tested on: E57; assay: as above
[11] = tested on: E31; assay: as above
[12] = tested on: E34; assay: as above
[13] = tested on: E21; assay: as above
[14] = tested on: E13; assay: as above
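Wherever phenotypic distance (Euclidean, principal components) from DMSO controls is given: cell Painting imaging in 384-well plates, CellProfiler features reduced to at least 20 principal components, Euclidean distance versus same-plate DMSO vehicle wells (0.1% v/v), median over six images per well.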
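Wherever surviving fraction (nuclei count normalised to DMSO) is given: nuclei counted by high-content imaging of Hoechst-stained cells in laminin-coated 384-well plates, relative to 0.1% DMSO vehicle wells, with staurosporine as cell-death control.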

Question: For `CC(C)C[C@H]1C(=O)N2CCC[C@H]2[C@]2(O)O[C@](NC(=O)[C@@H]3C=C4c5cccc6[nH]c(Br)c(c56)C[C@H]4N(C)C3)(C(C)C)C(=O)N12` [Bromocryptine mesylate], which phenotypic distance ([1]; 4.1 nM) is on record?
Answer: 1.05

Question: What about the phenotypic distance ([1]; 12.3 nM) of the same compound?
Answer: 1.08

Question: And the phenotypic distance ([1]; 37 nM)?
Answer: 0.956

Question: What about the phenotypic distance ([1]; 111.1 nM) of the same compound?
Answer: 0.691

Question: What about the phenotypic distance ([1]; 333.3 nM) of the same compound?
Answer: 0.43

Question: What about the phenotypic distance ([1]; 1000 nM) of the same compound?
Answer: 0.442

Question: What about the phenotypic distance ([1]; 3000 nM) of the same compound?
Answer: 0.73

Question: What about the phenotypic distance ([2]; 4.1 nM) of the same compound?
Answer: 1.04

Question: What about the phenotypic distance ([2]; 12.3 nM) of the same compound?
Answer: 0.531

Question: What about the phenotypic distance ([2]; 37 nM) of the same compound?
Answer: 0.575

Question: What about the phenotypic distance ([2]; 111.1 nM) of the same compound?
Answer: 0.661

Question: And the phenotypic distance ([2]; 333.3 nM)?
Answer: 0.642

Question: And the phenotypic distance ([2]; 1000 nM)?
Answer: 0.784

Question: And the phenotypic distance ([2]; 3000 nM)?
Answer: 1.28

Question: What about the phenotypic distance ([3]; 4.1 nM) of the same compound?
Answer: 0.496

Question: What about the phenotypic distance ([3]; 12.3 nM) of the same compound?
Answer: 0.874

Question: What about the phenotypic distance ([3]; 37 nM) of the same compound?
Answer: 0.757

Question: What about the phenotypic distance ([3]; 111.1 nM) of the same compound?
Answer: 5.36

Question: And the phenotypic distance ([3]; 333.3 nM)?
Answer: 0.51

Question: And the phenotypic distance ([3]; 1000 nM)?
Answer: 0.474

Question: What about the phenotypic distance ([3]; 3000 nM) of the same compound?
Answer: 1.74

Question: And the phenotypic distance ([4]; 4.1 nM)?
Answer: 0.381

Question: And the phenotypic distance ([4]; 12.3 nM)?
Answer: 0.548

Question: And the phenotypic distance ([4]; 37 nM)?
Answer: 0.581

Question: And the phenotypic distance ([4]; 111.1 nM)?
Answer: 0.404

Question: And the phenotypic distance ([4]; 333.3 nM)?
Answer: 0.658

Question: What about the phenotypic distance ([4]; 1000 nM) of the same compound?
Answer: 0.705

Question: And the phenotypic distance ([4]; 3000 nM)?
Answer: 0.828

Question: What about the phenotypic distance ([5]; 4.1 nM) of the same compound?
Answer: 0.67

Question: And the phenotypic distance ([5]; 12.3 nM)?
Answer: 0.914

Question: And the phenotypic distance ([5]; 37 nM)?
Answer: 0.493

Question: What about the phenotypic distance ([5]; 111.1 nM) of the same compound?
Answer: 0.843

Question: And the phenotypic distance ([5]; 333.3 nM)?
Answer: 1.2

Question: And the phenotypic distance ([5]; 1000 nM)?
Answer: 0.94

Question: And the phenotypic distance ([5]; 3000 nM)?
Answer: 1.28

Question: And the phenotypic distance ([6]; 4.1 nM)?
Answer: 0.67

Question: And the phenotypic distance ([6]; 12.3 nM)?
Answer: 0.901

Question: And the phenotypic distance ([6]; 37 nM)?
Answer: 0.972

Question: And the phenotypic distance ([6]; 111.1 nM)?
Answer: 0.667

Question: What about the phenotypic distance ([6]; 333.3 nM) of the same compound?
Answer: 0.353

Question: What about the phenotypic distance ([6]; 1000 nM) of the same compound?
Answer: 0.811

Question: And the phenotypic distance ([6]; 3000 nM)?
Answer: 0.593

Question: What about the phenotypic distance ([7]; 4.1 nM) of the same compound?
Answer: 0.797

Question: What about the phenotypic distance ([7]; 12.3 nM) of the same compound?
Answer: 0.698

Question: What about the phenotypic distance ([7]; 37 nM) of the same compound?
Answer: 0.44

Question: What about the phenotypic distance ([7]; 111.1 nM) of the same compound?
Answer: 1.07

Question: And the phenotypic distance ([7]; 333.3 nM)?
Answer: 0.683

Question: What about the phenotypic distance ([7]; 1000 nM) of the same compound?
Answer: 1.03

Question: What about the phenotypic distance ([7]; 3000 nM) of the same compound?
Answer: 1.57

Question: And the surviving fraction ([8]; 4.1 nM)?
Answer: 0.76

Question: What about the surviving fraction ([8]; 12.3 nM) of the same compound?
Answer: 0.909

Question: And the surviving fraction ([8]; 37 nM)?
Answer: 1.01

Question: And the surviving fraction ([8]; 111.1 nM)?
Answer: 0.932

Question: What about the surviving fraction ([8]; 333.3 nM) of the same compound?
Answer: 0.984

Question: And the surviving fraction ([8]; 1000 nM)?
Answer: 1.01

Question: And the surviving fraction ([8]; 3000 nM)?
Answer: 0.912

Question: What about the surviving fraction ([9]; 4.1 nM) of the same compound?
Answer: 1.1

Question: And the surviving fraction ([9]; 12.3 nM)?
Answer: 1.07

Question: And the surviving fraction ([9]; 37 nM)?
Answer: 1.07

Question: And the surviving fraction ([9]; 111.1 nM)?
Answer: 1.12

Question: And the surviving fraction ([9]; 333.3 nM)?
Answer: 0.978

Question: What about the surviving fraction ([9]; 1000 nM) of the same compound?
Answer: 1.05

Question: And the surviving fraction ([9]; 3000 nM)?
Answer: 0.779

Question: And the surviving fraction ([10]; 4.1 nM)?
Answer: 0.932

Question: What about the surviving fraction ([10]; 12.3 nM) of the same compound?
Answer: 1.13

Question: And the surviving fraction ([10]; 37 nM)?
Answer: 0.893

Question: What about the surviving fraction ([10]; 111.1 nM) of the same compound?
Answer: 1.05

Question: And the surviving fraction ([10]; 333.3 nM)?
Answer: 1.01

Question: What about the surviving fraction ([10]; 1000 nM) of the same compound?
Answer: 0.91

Question: And the surviving fraction ([10]; 3000 nM)?
Answer: 0.777

Question: And the surviving fraction ([11]; 4.1 nM)?
Answer: 1.07

Question: What about the surviving fraction ([11]; 12.3 nM) of the same compound?
Answer: 1.06

Question: And the surviving fraction ([11]; 37 nM)?
Answer: 0.944

Question: And the surviving fraction ([11]; 111.1 nM)?
Answer: 1.15

Question: And the surviving fraction ([11]; 333.3 nM)?
Answer: 1.03

Question: And the surviving fraction ([11]; 1000 nM)?
Answer: 1.13

Question: And the surviving fraction ([11]; 3000 nM)?
Answer: 0.897

Question: What about the surviving fraction ([12]; 4.1 nM) of the same compound?
Answer: 0.907

Question: What about the surviving fraction ([12]; 12.3 nM) of the same compound?
Answer: 0.846

Question: And the surviving fraction ([12]; 37 nM)?
Answer: 0.967

Question: And the surviving fraction ([12]; 111.1 nM)?
Answer: 1.16

Question: What about the surviving fraction ([12]; 333.3 nM) of the same compound?
Answer: 0.879

Question: And the surviving fraction ([12]; 1000 nM)?
Answer: 1.05

Question: What about the surviving fraction ([12]; 3000 nM) of the same compound?
Answer: 0.727

Question: And the surviving fraction ([13]; 4.1 nM)?
Answer: 1.06

Question: What about the surviving fraction ([13]; 12.3 nM) of the same compound?
Answer: 1.02

Question: And the surviving fraction ([13]; 37 nM)?
Answer: 1.05

Question: And the surviving fraction ([13]; 111.1 nM)?
Answer: 0.989

Question: And the surviving fraction ([13]; 333.3 nM)?
Answer: 1

Question: And the surviving fraction ([13]; 1000 nM)?
Answer: 0.969

Question: What about the surviving fraction ([13]; 3000 nM) of the same compound?
Answer: 0.967

Question: What about the surviving fraction ([14]; 4.1 nM) of the same compound?
Answer: 0.907

Question: What about the surviving fraction ([14]; 12.3 nM) of the same compound?
Answer: 0.944

Question: What about the surviving fraction ([14]; 37 nM) of the same compound?
Answer: 0.958

Question: What about the surviving fraction ([14]; 111.1 nM) of the same compound?
Answer: 0.816

Question: What about the surviving fraction ([14]; 333.3 nM) of the same compound?
Answer: 0.981

Question: And the surviving fraction ([14]; 1000 nM)?
Answer: 0.976

Question: And the surviving fraction ([14]; 3000 nM)?
Answer: 0.8
